These results are taken from patent US4918172A, “Anthracycline antibiotics” (Sanraku Incorporated, priority 1987, dated 1990).

Converted amounts (≈) assume the structure as drawn.

Common to all, as to assay type: cell-based
The test system of test [1] is mouse leukemia L1210 culture cells. Description: inhibition of RNA synthesis in L1210 culture cells (14C-uridine uptake). To be noted: 10% calf serum RPMI 1640, label added 15 minutes after compound, further 60 minutes at 37° C., read-out: 50% Inhibiting Concentration (IC50) RNA Synthesis Inhibition. As to the method:
(§1) Activity of inhibition propagation of mouse leukemia L1210 culture cells and of inhibition synthesis of nucleic acid in the cells:
(§2) Then a solution of the compound of the present invention prepared as mentioned above was added to the medium in a different concentration. 15 minutes after the addition, ^14 C-uridine (0.05 μCi/ml) or ^14 C-thymidine (0.05 μCi/ml) was added and the medium was further incubated at 37° C. for an additional 60 minutes. A cold 10% trichloroacetic acid (TCA) was added to the reaction solution so that the reaction was stopped and the acid-insoluble substance was precipitated. This was washed twice with a cold 5% TCA and then dissolved in formic acid. Then the radioactivity of the resulting solution was measured, and the 50% uptake inhibiting concentration was obtained from the radioactivity uptake ratio relative to the control group.

For test [2] the test system is unchanged. The test is described as follows: inhibition of DNA synthesis in L1210 culture cells (14C-thymidine uptake). Conditions: 10% calf serum RPMI 1640, label added 15 minutes after compound, further 60 minutes at 37° C., read-out: 50% Inhibiting Concentration (IC50) DNA Synthesis Inhibition. As to the method: as §1, §2
Test [3] has the same test system. Description: inhibition of propagation (50% growth inhibiting concentration) of mouse leukemia L1210 culture cells. Conditions: read-out: 50% Inhibiting Concentration (IC50) Cell Growth Inhibition. As to the method: as §1
L1210 cells (5×10^4 /ml) were inoculated in RPMI 1640 medium (Rose Wellberg Laboratory) containing 20% calf serum, and the compound of the present invention (as indicated in Table 1 below) was added thereto in a concentration of from 0.0005 to 50.0 μg/ml. Thus the cells were incubated in a CO2 incubator at 37° C. for 48 hours, and the 50% growth inhibiting concentration relative to the control group was obtained. The compound of the present invention was dissolved in M/50 acetic acid (pH 3.0) in a concentration of […] and then diluted with Dulbecco PBS (-) (manufactured by Nissui Pharmaceutical Co.), before being added to the medium.

Where [4] appears, read: L1210 cells, RPMI 1640 with 20% calf serum, 37° C., 48 hours.

With `CCC1(O)CC(OC2CC(N)C(OC3CCC(O)C(C)O3)C(C)O2)c2c(O)c3c(c(O)c2C1O)C(=O)c1cccc(O)c1C3=O` (stereo not drawn) [CG15A], the IC50 came to 3 µg/mL (≈ 4.76 µM) in test [1], 1.2 µg/mL (≈ 1.91 µM) in test [2] and 0.002 µg/mL (≈ 0.00318 µM) in test [3] (setting [4]).

As for `CCC1(O)CC(OC2CC(N)C(OC3CC(O)C(O)C(C)O3)C(C)O2)c2c(O)c3c(c(O)c2C1O)C(=O)c1cccc(O)c1C3=O` (stereo not drawn) [CG15B], the IC50 in test [1] came to 2.5 µg/mL (≈ 3.87 µM); in test [2], 4.6 µg/mL (≈ 7.12 µM); in test [3] (L1210, 48 h), 0.04 µg/mL (≈ 0.062 µM).

For the compound `CCC1(O)CC(OC2CC(N)C(OC3CCC(O)C(C)O3)C(C)O2)c2c(O)c3c(c(O)c2C1C(=O)OC)C(=O)c1cccc(O)c1C3=O` (stereo not drawn) [CG17A], the IC50 in test [1] amounted to 1.1 µg/mL (≈ 1.64 µM); in test [2], 3.3 µg/mL (≈ 4.91 µM); in test [3] (setting [4]) it was 0.5 µg/mL (≈ 0.744 µM).

Regarding `CCC1(O)CC(OC2CC(N)C(OC3CC(O)C(O)C(C)O3)C(C)O2)c2c(O)c3c(c(O)c2C1C(=O)OC)C(=O)c1cccc(O)c1C3=O` (stereo not drawn) [CG17B], the values for the IC50 in test [1], in test [2] and in test [3] (setting [4]) were 2.3 µg/mL (≈ 3.34 µM), 10 µg/mL (≈ 14.5 µM) and 1.4 µg/mL (≈ 2.04 µM), respectively.

For `CCC1(O)CC(OC2CC(N)C(OC3CCC(O)C(C)O3)C(C)O2)c2c(O)c3c(c(O)c2C1C(=O)OC)C(=O)c1cccc(OC)c1C3=O` (stereo not drawn) [CG19A], the IC50 in test [1] came to 1.3 µg/mL (≈ 1.9 µM); in test [2], 4.8 µg/mL (≈ 7 µM); in test [3] (setting [4]) it was 1 µg/mL (≈ 1.46 µM).

For the compound `CCC1(O)CC(OC2CC(N)C(OC3CC(O)C(O)C(C)O3)C(C)O2)c2c(O)c3c(c(O)c2C1C(=O)OC)C(=O)c1cccc(OC)c1C3=O` (stereo not drawn) [CG19B], the IC50 in test [1] and in test [2] was 10 µg/mL (≈ 14.3 µM) each time.

For `CC1OC(OC2C(N)CC(OC3CC(O)(C(C)O)Cc4c(O)c5c(c(O)c43)C(=O)c3c(O)cccc3C5=O)OC2C)CCC1O` (stereo not drawn) [CG20A], the IC50 in test [1] and in test [2] was 1.2 µg/mL (≈ 1.91 µM) each time.

For `CC1OC(OC2C(N)CC(OC3CC(O)(C(C)O)Cc4c(O)c5c(c(O)c43)C(=O)c3c(O)cccc3C5=O)OC2C)CC(O)C1O` (stereo not drawn) [CG20B], the IC50 is 5 µg/mL (≈ 7.74 µM) in test [1] and 10 µg/mL (≈ 15.5 µM) in test [2].

Regarding `CCC1(O)CC(OC2CC(N(C)C)C(OC3CCC(O)C(C)O3)C(C)O2)c2c(O)c3c(c(O)c2C1O)C(=O)c1cccc(O)c1C3=O` (stereo not drawn) [CG21A], the IC50 came to 0.18 µg/mL (≈ 0.274 µM) in test [1] and 0.38 µg/mL (≈ 0.578 µM) in test [2].

On to `CCC1(O)CC(OC2CC(NC)C(OC3CCC(O)C(C)O3)C(C)O2)c2c(O)c3c(c(O)c2C1O)C(=O)c1cccc(O)c1C3=O` (stereo not drawn) [CG22A], for which the values for the IC50 in test [1] and in test [2] were 1.4 µg/mL (≈ 2.17 µM) and 0.87 µg/mL (≈ 1.35 µM), respectively.

In the case of `CCC1(O)CC(OC2CC(NC)C(OC3CC(O)C(O)C(C)O3)C(C)O2)c2c(O)c3c(c(O)c2C1O)C(=O)c1cccc(O)c1C3=O` (stereo not drawn) [CG22B], the results for the IC50 in test [1] and in test [2] were 10 µg/mL (≈ 15.2 µM) and 5 µg/mL (≈ 7.58 µM), respectively.
